Reference: the NIST ThermoML archive (doi:10.1021/je700632z)
Numbers after ± are expanded uncertainties.

Details: 101.33 kPa, Liquid, Capillary tube (Ostwald / Ubbelohde) method

SMILES | kinematic viscosity (298.15 K) | kinematic viscosity (303.15 K) | kinematic viscosity (308.15 K) | kinematic viscosity (313.15 K) | kinematic viscosity (318.15 K)
Fc1c(F)c(F)c(C(F)(F)F)c(F)c1F [octafluorotoluene] | 5.88e-07 ± 4e-09 m2/s | 5.51e-07 ± 5e-09 m2/s | 5.16e-07 ± 4e-09 m2/s | 4.84e-07 ± 4e-09 m2/s | 4.57e-07 ± 4e-09 m2/s
FC(F)(F)C1(F)C(F)(F)C(F)(F)C(F)(F)C(F)(F)C1(F)F [perfluoro(methylcyclohexane)] | 9.31e-07 ± 8e-09 m2/s | 8.43e-07 ± 9e-09 m2/s | 7.72e-07 ± 8e-09 m2/s | 7.22e-07 ± 9e-09 m2/s | 6.84e-07 ± 9e-09 m2/s
FC(F)(F)C(F)(F)C(F)(F)C(F)(F)C(F)(F)C(F)(F)F [perfluorohexane] | 4.17e-07 ± 5e-09 m2/s | 3.97e-07 ± 9e-09 m2/s | 3.72e-07 ± 4e-09 m2/s | 3.57e-07 ± 5e-09 m2/s | 3.43e-07 ± 4e-09 m2/s
Fc1c(F)c(F)c(F)c(F)c1F [hexafluorobenzene] | 5.81e-07 ± 9e-09 m2/s | 5.35e-07 ± 1.1e-08 m2/s | 4.91e-07 ± 4e-09 m2/s | 4.5e-07 ± 7e-09 m2/s | 4.23e-07 ± 9e-09 m2/s
FC1(F)C(F)(F)C(F)(F)C2(F)C(F)(F)C(F)(F)C(F)(F)C(F)(F)C2(F)C1(F)F (stereo not given) [perfluorodecalin] | 2.803e-06 ± 1.6e-08 m2/s | 2.448e-06 ± 1.4e-08 m2/s | 2.159e-06 ± 1.4e-08 m2/s | 1.917e-06 ± 1.1e-08 m2/s | 1.709e-06 ± 1e-08 m2/s

Now from value to compound:

kinematic viscosity (298.15 K) | kinematic viscosity (303.15 K) | kinematic viscosity (308.15 K) | kinematic viscosity (313.15 K) | kinematic viscosity (318.15 K) | SMILES
7.11e-07 ± 7.4e-09 m2/s | 6.56e-07 ± 6.9e-09 m2/s | 6.08e-07 ± 6.4e-09 m2/s | 5.65e-07 ± 6e-09 m2/s | 5.27e-07 ± 5.6e-09 m2/s | FC(F)(F)C(F)(F)C(F)(F)C(F)(F)C(F)(F)C(F)(F)C(F)(F)C(F)(F)F [octadecafluorooctane]
1e-06 ± 1.2e-08 m2/s | 9.11e-07 ± 9e-09 m2/s | 8.33e-07 ± 8e-09 m2/s | 7.73e-07 ± 6e-09 m2/s | 7.14e-07 ± 7e-09 m2/s | FC(F)(F)C(F)(F)C(F)(F)C(F)(F)C(F)(F)C(F)(F)C(F)(F)C(F)(F)C(F)(F)F [eicosafluorononane]
5.43e-07 ± 4e-09 m2/s | 5.12e-07 ± 9e-09 m2/s | 4.82e-07 ± 1.1e-08 m2/s | 4.48e-07 ± 7e-09 m2/s | 4.34e-07 ± 7e-09 m2/s | FC(F)(F)C(F)(F)C(F)(F)C(F)(F)C(F)(F)C(F)(F)C(F)(F)F [hexadecafluoroheptane]
1.065e-06 ± 1e-08 m2/s | 9.96e-07 ± 1e-08 m2/s | 9.05e-07 ± 1.1e-08 m2/s | 8.37e-07 ± 6e-09 m2/s | 7.51e-07 ± 1.1e-08 m2/s | FC(F)(F)C(F)(F)C(F)(F)C(F)(F)C(F)(F)C(F)(F)C(F)(F)C(F)(F)Br [1-bromoperfluorooctane]
